Experimental data from paper PMC6409085, “Three odorant-binding proteins are involved in the behavioral response of Sogatella furcifera to rice plant volatiles” (PeerJ, 2019).
Where “and” joins values, the source holds several entries; their conditions need not be identical. Equal values may be shown once.

Legend:
S. furcifera adults = test: Y-tube olfactometer behavioral trials; type: in vivo, Sogatella furcifera; settings: odorant 50 µL/L vs hexane
Procedure, shortened: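 Single S. furcifera adults (2 days post-emergence, starved 0.5 h) chose between odorant (100 µL of 50 µL/L on filter paper) and hexane control in a glass Y-tube, charcoal-filtered humidified air 300 mL/min per arm, 25 ± 1 °C, 50% RH. Choice scored if insect passed half an arm and stayed >1 min within 10 min; 45 insects per compound, chi-squared test.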

SfurOBP11 = SfurOBP11 (Sogatella furcifera, UniProt V5T6E3); test: biochemical; type: binding
Procedure, shortened: (§1)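 First, 2.0 µM protein in 50 mM Tris-HCl (pH 7.4) was titrated with 1-NPN to obtain K1-NPN. Then odorants (2–20 µM final) competed against 2.0 µM 1-NPN, with fluorescence (ex 337 nm) recorded after 2 min. Ki was computed from IC50 via Ki = IC50/(1 + [1-NPN]/K1-NPN).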

SfurOBP1 = SfurOBP1 (Sogatella furcifera, UniProt V5T8N5); test: biochemical; type: binding; settings: for Fluorescence competitive binding assay, fluorescence intensity: OBP1, three replicate columns
Procedure, shortened: as §1

SfurOBP2 = SfurOBP2 (Sogatella furcifera, UniProt V5T759); test: biochemical; type: binding
Procedure, shortened: as §1

SfurOBP3 = SfurOBP3 (Sogatella furcifera, UniProt V5T818); test: biochemical; type: binding; settings: for Fluorescence competitive binding assay, fluorescence intensity: OBP3, three replicate columns
Procedure, shortened: as §1

Sequence of SfurOBP3 (V5T818 entry or part of it): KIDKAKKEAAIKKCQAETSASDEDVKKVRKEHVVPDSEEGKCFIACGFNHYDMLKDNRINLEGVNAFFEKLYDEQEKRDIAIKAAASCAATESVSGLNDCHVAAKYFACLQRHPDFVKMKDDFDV
Sequence of SfurOBP1 (V5T8N5 entry or part of it): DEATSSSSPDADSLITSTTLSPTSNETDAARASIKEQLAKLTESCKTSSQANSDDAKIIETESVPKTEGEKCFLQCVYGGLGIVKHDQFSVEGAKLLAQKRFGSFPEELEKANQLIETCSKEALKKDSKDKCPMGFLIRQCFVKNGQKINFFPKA
Sequence of SfurOBP11 (V5T6E3 entry or part of it): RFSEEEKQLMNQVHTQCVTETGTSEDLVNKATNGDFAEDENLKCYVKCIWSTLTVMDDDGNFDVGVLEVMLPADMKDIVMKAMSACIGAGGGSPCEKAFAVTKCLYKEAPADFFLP
Sequence of SfurOBP2 (V5T759 entry or part of it): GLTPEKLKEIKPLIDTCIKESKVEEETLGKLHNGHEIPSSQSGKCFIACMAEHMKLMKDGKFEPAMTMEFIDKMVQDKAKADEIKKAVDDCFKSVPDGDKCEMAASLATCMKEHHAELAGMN

IC50 (SfurOBP11; SfurOBP11, protein and 1-NPN both 2.0 µM, competitor 2-20 µM, read-out: IC50): > 20 µM
Fluorescence intensity, fluorescence competitive binding assay, OBP11 (SfurOBP11; ligand concentration 2, replicate 1): 24279
Fluorescence intensity, fluorescence competitive binding assay, OBP11 (SfurOBP11; ligand concentration 2, replicate 2): 24939
Fluorescence intensity, fluorescence competitive binding assay, OBP11 (SfurOBP11; ligand concentration 2, replicate 3): 29122
Fluorescence intensity, fluorescence competitive binding assay, OBP11 (SfurOBP11; ligand concentration 4, replicate 1): 25640
Fluorescence intensity, fluorescence competitive binding assay, OBP11 (SfurOBP11; ligand concentration 4, replicate 2): 28958
Fluorescence intensity, fluorescence competitive binding assay, OBP11 (SfurOBP11; ligand concentration 4, replicate 3): 26788
Fluorescence intensity, fluorescence competitive binding assay, OBP11 (SfurOBP11; ligand concentration 6, replicate 1): 25301
Fluorescence intensity, fluorescence competitive binding assay, OBP11 (SfurOBP11; ligand concentration 6, replicate 2): 29174
Fluorescence intensity, fluorescence competitive binding assay, OBP11 (SfurOBP11; ligand concentration 6, replicate 3): 26969
Fluorescence intensity, fluorescence competitive binding assay, OBP11 (SfurOBP11; ligand concentration 8, replicate 1): 29061
Fluorescence intensity, fluorescence competitive binding assay, OBP11 (SfurOBP11; ligand concentration 8, replicate 2): 28222
Fluorescence intensity, fluorescence competitive binding assay, OBP11 (SfurOBP11; ligand concentration 8, replicate 3): 29900
Fluorescence intensity, fluorescence competitive binding assay, OBP11 (SfurOBP11; ligand concentration 10, replicate 1): 27603
Fluorescence intensity, fluorescence competitive binding assay, OBP11 (SfurOBP11; ligand concentration 10, replicate 2): 27689
Fluorescence intensity, fluorescence competitive binding assay, OBP11 (SfurOBP11; ligand concentration 10, replicate 3): 19569
Fluorescence intensity, fluorescence competitive binding assay, OBP11 (SfurOBP11; ligand concentration 12, replicate 1): 25318
Fluorescence intensity, fluorescence competitive binding assay, OBP11 (SfurOBP11; ligand concentration 12, replicate 2): 27390
Fluorescence intensity, fluorescence competitive binding assay, OBP11 (SfurOBP11; ligand concentration 12, replicate 3): 28182
Fluorescence intensity, fluorescence competitive binding assay, OBP11 (SfurOBP11; ligand concentration 14, replicate 1): 26354
Fluorescence intensity, fluorescence competitive binding assay, OBP11 (SfurOBP11; ligand concentration 14, replicate 2): 26978
Fluorescence intensity, fluorescence competitive binding assay, OBP11 (SfurOBP11; ligand concentration 14, replicate 3): 26309
Fluorescence intensity, fluorescence competitive binding assay, OBP11 (SfurOBP11; ligand concentration 16, replicate 1): 23481
Fluorescence intensity, fluorescence competitive binding assay, OBP11 (SfurOBP11; ligand concentration 16, replicate 2): 24311
Fluorescence intensity, fluorescence competitive binding assay, OBP11 (SfurOBP11; ligand concentration 16, replicate 3): 22273
Fluorescence intensity, fluorescence competitive binding assay, OBP11 (SfurOBP11; ligand concentration 18, replicate 1): 28836
Fluorescence intensity, fluorescence competitive binding assay, OBP11 (SfurOBP11; ligand concentration 18, replicate 2): 32227
Fluorescence intensity, fluorescence competitive binding assay, OBP11 (SfurOBP11; ligand concentration 18, replicate 3): 28560
Fluorescence intensity, fluorescence competitive binding assay, OBP11 (SfurOBP11; ligand concentration 20, replicate 1): 27143
Fluorescence intensity, fluorescence competitive binding assay, OBP11 (SfurOBP11; ligand concentration 20, replicate 2): 27661
Fluorescence intensity, fluorescence competitive binding assay, OBP11 (SfurOBP11; ligand concentration 20, replicate 3): 26182
Fluorescence competitive binding assay, fluorescence intensity (SfurOBP1; ligand concentration 2 (μM)): 7113 and 7279 and 7196
Fluorescence competitive binding assay, fluorescence intensity (SfurOBP1; ligand concentration 4 (μM)): 8035 and 6567 and 6323
Fluorescence competitive binding assay, fluorescence intensity (SfurOBP1; ligand concentration 6 (μM)): 7198 and 8786 and 7995
Fluorescence competitive binding assay, fluorescence intensity (SfurOBP1; ligand concentration 8 (μM)): 8545 and 7731 and 8071
Fluorescence competitive binding assay, fluorescence intensity (SfurOBP1; ligand concentration 10 (μM)): 6799 and 7181 and 8487
Fluorescence competitive binding assay, fluorescence intensity (SfurOBP1; ligand concentration 12 (μM)): 7177 and 8788 and 7408
Fluorescence competitive binding assay, fluorescence intensity (SfurOBP1; ligand concentration 14 (μM)): 8520 and 7543 and 7998
Fluorescence competitive binding assay, fluorescence intensity (SfurOBP1; ligand concentration 16 (μM)): 7196 and 9418 and 8283
Fluorescence competitive binding assay, fluorescence intensity (SfurOBP1; ligand concentration 18 (μM)): 10247 and 9192 and 8904
Fluorescence competitive binding assay, fluorescence intensity (SfurOBP1; ligand concentration 20 (μM)): 10042 and 9521 and 8702
IC50 (SfurOBP1; SfurOBP1, protein and 1-NPN both 2.0 µM, competitor 2-20 µM, read-out: IC50): > 20 µM
IC50 (SfurOBP2; SfurOBP2, protein and 1-NPN both 2.0 µM, competitor 2-20 µM, read-out: IC50): > 20 µM
Fluorescence competitive binding assay, OBP2 (raw fluorescence reading) (SfurOBP2; ligand concentration 2 (unit not given), replicate column 1 of 3): 19179
Fluorescence competitive binding assay, OBP2 (raw fluorescence reading) (SfurOBP2; ligand concentration 2 (unit not given), replicate column 2 of 3): 16653
Fluorescence competitive binding assay, OBP2 (raw fluorescence reading) (SfurOBP2; ligand concentration 2 (unit not given), replicate column 3 of 3): 19027
Fluorescence competitive binding assay, OBP2 (raw fluorescence reading) (SfurOBP2; ligand concentration 4 (unit not given), replicate column 1 of 3): 18170
Fluorescence competitive binding assay, OBP2 (raw fluorescence reading) (SfurOBP2; ligand concentration 4 (unit not given), replicate column 2 of 3): 19771
Fluorescence competitive binding assay, OBP2 (raw fluorescence reading) (SfurOBP2; ligand concentration 4 (unit not given), replicate column 3 of 3): 20766
Fluorescence competitive binding assay, OBP2 (raw fluorescence reading) (SfurOBP2; ligand concentration 6 (unit not given), replicate column 1 of 3): 19862
Fluorescence competitive binding assay, OBP2 (raw fluorescence reading) (SfurOBP2; ligand concentration 6 (unit not given), replicate column 2 of 3): 19512
Fluorescence competitive binding assay, OBP2 (raw fluorescence reading) (SfurOBP2; ligand concentration 6 (unit not given), replicate column 3 of 3): 20651
Fluorescence competitive binding assay, OBP2 (raw fluorescence reading) (SfurOBP2; ligand concentration 8 (unit not given), replicate column 1 of 3): 15792
Fluorescence competitive binding assay, OBP2 (raw fluorescence reading) (SfurOBP2; ligand concentration 8 (unit not given), replicate column 2 of 3): 18755
Fluorescence competitive binding assay, OBP2 (raw fluorescence reading) (SfurOBP2; ligand concentration 8 (unit not given), replicate column 3 of 3): 20463
Fluorescence competitive binding assay, OBP2 (raw fluorescence reading) (SfurOBP2; ligand concentration 10 (unit not given), replicate column 1 of 3): 17421
Fluorescence competitive binding assay, OBP2 (raw fluorescence reading) (SfurOBP2; ligand concentration 10 (unit not given), replicate column 2 of 3): 18400
Fluorescence competitive binding assay, OBP2 (raw fluorescence reading) (SfurOBP2; ligand concentration 10 (unit not given), replicate column 3 of 3): 18628
Fluorescence competitive binding assay, OBP2 (raw fluorescence reading) (SfurOBP2; ligand concentration 12 (unit not given), replicate column 1 of 3): 16986
Fluorescence competitive binding assay, OBP2 (raw fluorescence reading) (SfurOBP2; ligand concentration 12 (unit not given), replicate column 2 of 3): 26722
Fluorescence competitive binding assay, OBP2 (raw fluorescence reading) (SfurOBP2; ligand concentration 12 (unit not given), replicate column 3 of 3): 18513
Fluorescence competitive binding assay, OBP2 (raw fluorescence reading) (SfurOBP2; ligand concentration 14 (unit not given), replicate column 1 of 3): 17500
Fluorescence competitive binding assay, OBP2 (raw fluorescence reading) (SfurOBP2; ligand concentration 14 (unit not given), replicate column 2 of 3): 18527
Fluorescence competitive binding assay, OBP2 (raw fluorescence reading) (SfurOBP2; ligand concentration 14 (unit not given), replicate column 3 of 3): 15051
Fluorescence competitive binding assay, OBP2 (raw fluorescence reading) (SfurOBP2; ligand concentration 16 (unit not given), replicate column 1 of 3): 15983
Fluorescence competitive binding assay, OBP2 (raw fluorescence reading) (SfurOBP2; ligand concentration 16 (unit not given), replicate column 2 of 3): 17600
Fluorescence competitive binding assay, OBP2 (raw fluorescence reading) (SfurOBP2; ligand concentration 16 (unit not given), replicate column 3 of 3): 16529
Fluorescence competitive binding assay, OBP2 (raw fluorescence reading) (SfurOBP2; ligand concentration 18 (unit not given), replicate column 1 of 3): 18709
Fluorescence competitive binding assay, OBP2 (raw fluorescence reading) (SfurOBP2; ligand concentration 18 (unit not given), replicate column 2 of 3): 20674
Fluorescence competitive binding assay, OBP2 (raw fluorescence reading) (SfurOBP2; ligand concentration 18 (unit not given), replicate column 3 of 3): 18464
Fluorescence competitive binding assay, OBP2 (raw fluorescence reading) (SfurOBP2; ligand concentration 20 (unit not given), replicate column 1 of 3): 19401
Fluorescence competitive binding assay, OBP2 (raw fluorescence reading) (SfurOBP2; ligand concentration 20 (unit not given), replicate column 2 of 3): 17294
Fluorescence competitive binding assay, OBP2 (raw fluorescence reading) (SfurOBP2; ligand concentration 20 (unit not given), replicate column 3 of 3): 16214
Fluorescence competitive binding assay, fluorescence intensity (SfurOBP3; ligand concentration 2): 68575 and 67242 and 67984
Fluorescence competitive binding assay, fluorescence intensity (SfurOBP3; ligand concentration 4): 64299 and 63882 and 65677
Fluorescence competitive binding assay, fluorescence intensity (SfurOBP3; ligand concentration 6): 63214 and 64264 and 71883
Fluorescence competitive binding assay, fluorescence intensity (SfurOBP3; ligand concentration 8): 56987 and 54777 and 62435
Fluorescence competitive binding assay, fluorescence intensity (SfurOBP3; ligand concentration 10): 56513 and 56201 and 65155
Fluorescence competitive binding assay, fluorescence intensity (SfurOBP3; ligand concentration 12): 55112 and 58995 and 53063
Fluorescence competitive binding assay, fluorescence intensity (SfurOBP3; ligand concentration 14): 51702 and 52973 and 56636
Fluorescence competitive binding assay, fluorescence intensity (SfurOBP3; ligand concentration 16): 47206 and 51931 and 50397
Fluorescence competitive binding assay, fluorescence intensity (SfurOBP3; ligand concentration 18): 54350 and 59148 and 62323
Fluorescence competitive binding assay, fluorescence intensity (SfurOBP3; ligand concentration 20): 48786 and 51913 and 45060
IC50 (SfurOBP3; SfurOBP3, protein and 1-NPN both 2.0 µM, competitor 2-20 µM, read-out: IC50): > 20 µM
SMILES: CCCCCCCC=O [octanal]
behavioral response of S. furcifera (in words) (S. furcifera adults): significantly repelled
number of insects choosing hexane arm (S. furcifera adults; adults): 15
number of insects choosing volatilies arm (S. furcifera adults; adults): 8
number of insects failed (no choice) (S. furcifera adults; adults): 17
